Reference: PubChem BioAssay AID192 (DTP/NCI, 2004)
“And” between values parts separate entries of the source, which are not always exact repeats. Identical values can stand only once. Toxic doses and inconclusive results are not listed.

Test system: BDF1 mice, B16 melanoma ip, median survival T/C
Assay: NCI In Vivo Anticancer Drug Screen. Data for tumor model B16 Melanoma (intraperitoneal) in B6D2F1 (BDF1) mice
Conditions: endpoint: median survival time, higher = longer survival
In short: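 Read-out: survival or tumor size, given as treated/control ratio. Controls received vehicle only; animals bore transplantable tumors.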

[1] = dose: 12.5 mg/kg/injection, schedule: Q01DX009 (ip), vehicle: saline
[2] = dose: 12.5 mg/kg/injection, schedule: Q01DX009 (ip), vehicle: suspension in saline
[3] = dose: 25.0 mg/kg/injection, schedule: Q01DX009 (ip), vehicle: saline
[4] = dose: 25.0 mg/kg/injection, schedule: Q01DX009 (ip), vehicle: suspension in saline
[5] = dose: 50.0 mg/kg/injection, schedule: Q01DX009 (ip), vehicle: saline
[6] = dose: 50.0 mg/kg/injection, schedule: Q01DX009 (ip), vehicle: suspension in saline
[7] = dose: 100.0 mg/kg/injection, schedule: Q01DX009 (ip), vehicle: saline
[8] = dose: 100.0 mg/kg/injection, schedule: Q01DX009 (ip), vehicle: suspension in saline
[9] = dose: 200.0 mg/kg/injection, schedule: Q01DX009 (ip), vehicle: suspension in saline
[10] = dose: 12.5 mg/kg/injection, schedule: Q01DX009 (ip), vehicle: Klucel (hydroxypropylcellulose) (HPC)
[11] = dose: 12.5 mg/kg/injection, schedule: Q01DX009 (ip), vehicle: saline with Tween-80
[12] = dose: 25.0 mg/kg/injection, schedule: Q01DX009 (ip), vehicle: saline with Tween-80
[13] = dose: 50.0 mg/kg/injection, schedule: Q01DX009 (ip), vehicle: saline with Tween-80
[14] = dose: 100.0 mg/kg/injection, schedule: Q01DX009 (ip), vehicle: saline with Tween-80
[15] = dose: 6.25 mg/kg/injection, schedule: Q01DX009 (ip), vehicle: Klucel (hydroxypropylcellulose) (HPC)
[16] = dose: 50.0 mg/kg/injection, schedule: Q01DX009 (ip), vehicle: Klucel (hydroxypropylcellulose) (HPC)
[17] = dose: 100.0 mg/kg/injection, schedule: Q01DX009 (ip), vehicle: Klucel (hydroxypropylcellulose) (HPC)
[18] = dose: 200.0 mg/kg/injection, schedule: Q01DX009 (ip), vehicle: Klucel (hydroxypropylcellulose) (HPC)
[19] = dose: 400.0 mg/kg/injection, schedule: Q01DX009 (ip), vehicle: Klucel (hydroxypropylcellulose) (HPC)

COCC(O)Cn1ccnc1[N+](=O)[O-] (centres undefined)
T/C [1]: 111 % of control | T/C [2]: 124 % of control | T/C (dose: 12.5 mg/kg/injection, schedule: Q01DX009 (ip), vehicle: water): 95 % of control | T/C [3]: 105 % of control | T/C [4]: 124 % of control | T/C (dose: 25.0 mg/kg/injection, schedule: Q01DX009 (ip), vehicle: water): 100 % of control | T/C [5]: 107 % of control | T/C [6]: 103 % of control | T/C (dose: 50.0 mg/kg/injection, schedule: Q01DX009 (ip), vehicle: water): 111 % of control | T/C [7]: 101 % of control | T/C [8]: 110 % of control | T/C (dose: 100.0 mg/kg/injection, schedule: Q01DX009 (ip), vehicle: water): 100 % of control | T/C (dose: 200.0 mg/kg/injection, schedule: Q01DX009 (ip), vehicle: saline): 107 % of control | T/C [9]: 124 % of control | T/C (dose: 200.0 mg/kg/injection, schedule: Q01DX009 (ip), vehicle: water): 103 % of control | T/C (dose: 400.0 mg/kg/injection, schedule: Q01DX009 (ip), vehicle: saline): 104 % of control | T/C (dose: 400.0 mg/kg/injection, schedule: Q01DX009 (ip), vehicle: water): 100 % of control

CCCCCCC1CCC(N)CC1 (centres undefined)
T/C [10]: 86 % of control

CCN(CC)CCNc1ccc(C)c2sc3ccc(O)cc3c(=O)c12
T/C [11]: 110 % of control | T/C [12]: 161 % of control | T/C [13]: 182 % of control | T/C [14]: 172 % of control

O=CNC(CSC(c1ccccc1)c1ccccc1)C(=O)O (centres undefined)
T/C (dose: 50.0 mg/kg/injection, schedule: Q04DX003 (ip), vehicle: Klucel (hydroxypropylcellulose) (HPC)): 105 % of control | T/C (dose: 100.0 mg/kg/injection, schedule: Q04DX003 (ip), vehicle: Klucel (hydroxypropylcellulose) (HPC)): 100 % of control | T/C (dose: 200.0 mg/kg/injection, schedule: Q04DX003 (ip), vehicle: Klucel (hydroxypropylcellulose) (HPC)): 94 % of control

Cc1cccc(/C=N/OCCC(C)C)n1
T/C [13]: 107 % of control | T/C [14]: 95 % of control

Cc1ccc2c(c1)C(=O)N(CC[P+](c1ccccc1)(c1ccccc1)c1ccccc1)C2=O
T/C (dose: 0.78 mg/kg/injection, schedule: Q01DX009 (ip), vehicle: Klucel (hydroxypropylcellulose) (HPC)): 93 % of control | T/C (dose: 1.56 mg/kg/injection, schedule: Q01DX009 (ip), vehicle: Klucel (hydroxypropylcellulose) (HPC)): 108 % of control | T/C (dose: 3.12 mg/kg/injection, schedule: Q01DX009 (ip), vehicle: Klucel (hydroxypropylcellulose) (HPC)): 103 % of control | T/C [15]: 103 % of control | T/C [10]: 95 % of control

CC(C)N(C(=O)COc1ccc(Cl)cc1)c1ccccc1
T/C [16]: 86 % of control | T/C [17]: 106 % of control | T/C [18]: 86 % of control

CC1(C)c2ccccc2C(C)(O)c2ccccc21
T/C (dose: 50.0 mg/kg/injection, schedule: Q04DX003 (ip), vehicle: saline with Tween-80): 102 % of control | T/C (dose: 100.0 mg/kg/injection, schedule: Q04DX003 (ip), vehicle: saline with Tween-80): 111 % of control | T/C (dose: 200.0 mg/kg/injection, schedule: Q04DX003 (ip), vehicle: saline with Tween-80): 94 % of control

CC(=N\O)/C(C)=N/O.CC(=N\O)/C(C)=N/O.[Ni]
T/C (dose: 3.0 mg/kg/injection, schedule: Q01DX009 (ip), vehicle: saline with Tween-80): 93 % of control | T/C (dose: 6.0 mg/kg/injection, schedule: Q01DX009 (ip), vehicle: saline with Tween-80): 87 % of control

Cc1cc(C)c(OCC2CO2)c(C)c1 (centres undefined)
T/C [17]: 103 % of control | T/C [18]: 96 % of control | T/C [19]: 90 % of control

NC(=O)c1ccccc1NC(=O)COc1ccc(Cl)cc1
T/C [17]: 106 % of control | T/C [18]: 106 % of control | T/C [19]: 100 % of control

COC(=O)c1[nH]cnc1/N=N/N(C)C
T/C (dose: 3.75 mg/kg/injection, schedule: Q01DX009 (ip), vehicle: saline): 121 % of control | T/C (dose: 15.0 mg/kg/injection, schedule: Q01DX009 (ip), vehicle: saline): 121 % of control

CCOC(=O)C(Cc1ccc(O)cc1)Nc1nc2ccccc2o1 (centres undefined)
T/C [13]: 103 % of control | T/C [14]: 106 % of control | T/C (dose: 200.0 mg/kg/injection, schedule: Q01DX009 (ip), vehicle: saline with Tween-80): 106 % of control | T/C (dose: 400.0 mg/kg/injection, schedule: Q01DX009 (ip), vehicle: saline with Tween-80): 96 % of control

CN(C)c1nc(N)nc(Nc2ccc(Br)cc2)c1N=O
T/C [18]: 118 % of control

Cc1c(Cl)cccc1NC(=O)Oc1ccc(Cl)cc1
T/C [17]: 98 % of control | T/C [18]: 101 % of control | T/C [19]: 96 % of control

CCN1C(=O)CC2(CCN(C)CC2)C1=O
T/C (dose: 0.78 mg/kg/injection, schedule: Q01DX009 (ip), vehicle: saline): 122 % of control | T/C (dose: 1.56 mg/kg/injection, schedule: Q01DX009 (ip), vehicle: saline): 117 % of control | T/C (dose: 3.12 mg/kg/injection, schedule: Q01DX009 (ip), vehicle: saline): 103 % of control | T/C (dose: 6.25 mg/kg/injection, schedule: Q01DX009 (ip), vehicle: saline): 108 % of control | T/C [1]: 108 % of control | T/C [3]: 102 % of control | T/C [5]: 98 % of control | T/C [7]: 96 % of control

COC(=O)c1ccc[n+](CCc2c[nH]c3ccccc23)c1
T/C [11]: 108 % of control | T/C [12]: 99 % of control | T/C [13]: 97 % of control

Cc1cc(NS(=O)(=O)c2ccc(N=Nc3cc(N=Nc4ccc(S(=O)(=O)Nc5cc(C)nc(C)n5)cc4)c4c(NC(=O)C(Cl)Cl)cccc4c3OC(=O)C(Cl)Cl)cc2)nc(C)n1 (tested in a mixture with another compound)
T/C [2]: 98 % of control | T/C [4]: 95 % of control | T/C [6]: 97 % of control | T/C [8]: 95 % of control | T/C [9]: 93 % of control | T/C (dose: 400.0 mg/kg/injection, schedule: Q01DX009 (ip), vehicle: suspension in saline): 87 % of control

O=C(C=C(C(F)(F)Cl)C(F)(F)Cl)c1cccs1
T/C (dose: 0.31 mg/kg/injection, schedule: Q01DX009 (ip), vehicle: saline): 97 % of control | T/C (dose: 0.62 mg/kg/injection, schedule: Q01DX009 (ip), vehicle: saline): 92 % of control | T/C (dose: 2.5 mg/kg/injection, schedule: Q04DX003 (ip), vehicle: saline): 97 % of control | T/C (dose: 5.0 mg/kg/injection, schedule: Q04DX003 (ip), vehicle: saline): 105 % of control | T/C (dose: 10.0 mg/kg/injection, schedule: Q04DX003 (ip), vehicle: saline): 90 % of control

O=Cc1ccc(C=O)c(Cl)c1
T/C [16]: 97 % of control | T/C [17]: 109 % of control | T/C [18]: 107 % of control | T/C [19]: 104 % of control

C=C(C)C12OC3(c4ccccc4)OC1C1C4OC4(CO)C(O)C4(O)C(=O)C(C)=CC4C1(O3)C(C)C2OC(=O)/C=C/C=C/c1ccccc1 (centres undefined)
T/C (dose: 6.3 micrograms/kg/injection, schedule: Q01DX009 (ip), vehicle: saline with Tween-80): 107 % of control | T/C (dose: 12.5 micrograms/kg/injection, schedule: Q01DX009 (ip), vehicle: saline with Tween-80): 96 % of control | T/C (dose: 25.0 micrograms/kg/injection, schedule: Q01DX009 (ip), vehicle: alcohol): 90 % of control | T/C (dose: 25.0 micrograms/kg/injection, schedule: Q01DX009 (ip), vehicle: saline with Tween-80): 96 % of control | T/C (dose: 50.0 micrograms/kg/injection, schedule: Q01DX009 (ip), vehicle: alcohol): 91 % of control | T/C (dose: 50.0 micrograms/kg/injection, schedule: Q01DX009 (ip), vehicle: saline with Tween-80): 96 % of control | T/C (dose: 100.0 micrograms/kg/injection, schedule: Q01DX009 (ip), vehicle: alcohol): 88 % of control | T/C (dose: 100.0 micrograms/kg/injection, schedule: Q01DX009 (ip), vehicle: saline with Tween-80): 96 % of control

[Cl][Pt+2][Cl].[NH-]C1CCCCC1.[NH-]C1CCCCC1
T/C [15]: 105 % of control | T/C [10]: 110 % of control | T/C (dose: 25.0 mg/kg/injection, schedule: Q01DX009 (ip), vehicle: Klucel (hydroxypropylcellulose) (HPC)): 92 % of control and 117 % of control | T/C [16]: 97 % of control
